The values below come from paper PMC9080042, “Biochemical and kinetic characterization of laccase and manganese peroxidase from novel Klebsiella pneumoniae strains and their application in bioethanol production” (RSC Advances, 2018).

What all share (assay): ABTS oxidation at […] nm, Lineweaver-Burk
Common to all, as to type: biochemical, Klebsiella pneumoniae

One assay relates to T1, laccase (NITW715076).
T1 construct: gene lac; native extracellular enzyme from culture supernatant; ammonium sulphate, dialysis, DEAE-sepharose; 66 kDa by SDS-PAGE; gene not identified
As to conditions: 0.1 M citrate buffer pH 5.0, optimum temperature (50 °C); methods call the enzyme partially purified; read-out: Laccase / K m.

In the next assay the test system is T2, laccase (NITW715076_1).
T2 construct: gene lac; native extracellular enzyme from culture supernatant; ammonium sulphate, dialysis, DEAE-sepharose; 66 kDa by SDS-PAGE; gene not identified
To be noted: 0.1 M citrate buffer pH 5.0, optimum temperature (50 °C); methods call the enzyme partially purified; read-out: Laccase / K m.

Another assay relates to T3, laccase (NITW715076_2).
T3 construct: gene lac; native extracellular enzyme from culture supernatant; ammonium sulphate, dialysis, DEAE-sepharose; 66 kDa by SDS-PAGE; gene not identified
As to conditions: 0.1 M citrate buffer pH 5.0, optimum temperature (60 °C); methods call the enzyme partially purified; read-out: Laccase / K m.

On to `CCn1c(=NN=c2sc3cc(S(=O)(=O)O)ccc3n2CC)sc2cc(S(=O)(=O)O)ccc21` [ABTS, 2,2′-azino-bis(3-ethylbenzothiazoline)-6-sulfonic acid], for which the Km with laccase (NITW715076) is 467 µM; in the assay on laccase (NITW715076_1), 3970 µM; with laccase (NITW715076_2) it was 380 µM.
